From patent publication US20100292200A1, “Methods for Modulating Apoptosis in Platelets” (The Walter and Eliza Hall Institute of Medical Research, priority 2006, published 2010)
Entries after “also recorded” stand apart in the source; their conditions may differ.

Legend:
[1] = system: tumor cell lines derived from small cell lung cancers or lymphomas; conditions: small cell lung cancer or lymphoma derived lines; Oltersdorf et al., 2005; cited from earlier work
[2] = mouse, in vivo; cited from earlier work
[3] = system: megakaryocytes; conditions: mouse, in vivo
Description: (§1) The hematocrit, platelet and white cell count, and differential were determined by using either manual or automated (Advia 120) counting techniques. In most experiments, with the exception of data shown in FIGS. 1A and 6E, the data was collected from male mice. Clonal cultures of 2.5×10^4 adult bone marrow cells or 5×10^4 spleen cells in 1 mL of 0.3% agar in DMEM supplemented with newborn calf serum (20%) were stimulated with a mixture of 100 ng/mL murine stem cell factor, 10 ng/mL murine IL-3, 4 units/mL human EPO and incubated for 7 days at 37° C. in a fully humidified atmosphere of 10% CO2 in air. Agar cultures were fixed, sequentially stained for acetylcholinesterase, Luxol fast blue and hematoxylin; the cellular composition of each colony determined at ×100-400 magnification. Megakaryocyte counts were performed by manual counting from sections of sternum and spleen after staining with hematoxylin/eosin. A minimum of 10 high-power fields (×200) were scored.

[4] = system: cells from the bone marrow of C57BL/6 mice; experiment: formation of hematopoietic progenitors in vitro (soft agar colony cultures); assay type: cell-based, mouse
Description: Cells (25,000) from the bone marrow of C57BL/6 mice were cultured in soft agar with G-CSF, IL-3 and EPO for 7 r d, stained and counted. Saline or ABT-737 was added on days 1, 3 and 5. […] G, granulocyte colony; GM, granulocyte/macrophage colony; M, macrophage colony; EO, eosinophil colony; Meg, megakaryocyte colony. Total colony counts are the means of two cultures; megakaryocyte colony counts represent the means±SD of four indepdendent cultures.
as §1

[5] = system: human platelets; conditions: 1 μM for 1 or 2 h
Description: Human whole blood was obtained with informed consent (approved by the Institutional Review Board), Platelet rich plasma was obtained and incubated at room temperature with drug or control for up to 2 h. Platelets were counted manually in triplicate using a hemacytometer.

[6] = system: platelets; experiment: ABT-737 administration to mice, peripheral blood platelet counts; assay type: in vivo, mouse
Description: Animals were bled 2-24 h afterwards and platelet counts determined. […] Platelet counts (blue symbols; left axis) were determined 2-96 h after a single dose of ABT-737 (red arrow). […] Orange symbols represent serum TPO levels (right axis). […] Platelet counts were determined before and 8 h after a single dose of ABT-737 (red arrows) given at weekly intervals. […] (E) Synchronizing platelets. […] Wild type C57BL/6 mice were treated with APS, and then injected with ABT-737 (red arrows) either 2 or 7 days afterwards. Absolute platelet counts and the % of reticulated platelets were measured. The top panels show representative flow cytometric profiles following thiazole orange staining before or after ABT-737 injections. The bottom panels show platelet counts prior to or 2 h post ABT-737 injection. Data in (B), (C), (E) and (F) represent means±SD of 3-6 mice at each time point. […]
as §1
Mice were injected intra-peritoneally with 75 mg/kg of ABT-737 given as a single dose or daily. A stock solution of ABT-737 (1 g/mL in DMSO) was diluted in a mixture of 30% propylene glycol, 5% Tween 80, 65% D5W (5% dextrose in water), pH 4-5; the final concentration of DMSO was less than 1%.

[7] = system: Bcl-2, Bcl-xL, Bcl-w, Mcl-1, A1; conditions: Oltersdorf et al., 2005; van Delft et al., 2006; cited from earlier work
[8] = system: mouse platelets; experiment: Ex vivo platelet assays, mouse platelets in culture (platelet counts, caspase immunoblotting); assay type: cell-based; conditions: ABT-737 1 μM
Description: (A) Expression of Bcl-2 family proteins in platelets. […] (C) ABT-737 triggers caspase activation in platelets. […] (F) Absence of Bak protects platelets against ABT-737.
Cell death was induced with ABT-737 (up to 5 μM, Abbott Laboratories (Oltersdorf et al., 2005 (supra)), etoposide (up to 100 μM, Pharmacia) or staurosporine (10 μM, Sigma); 50 μM qVD.OPh (Enzyme Systems) was also added in some experiments. Cell viability was determined by flow cytometry for cells that exclude propidium iodide or manual counting using a hemacytometer.
Other antibodies for immunoblotting were mouse monoclonal anti-Bcl-xL (2H12; BD), anti-Bcl-2 (clone 7; BD), anti-human Bcl-2 (Bcl-2-100), anti-actin (AC40; Sigma), anti-Bax (2D2 and 5B7; Sigma), anti-Mcl-1 (clone 22: BD); rat monoclonal anti-Mcl-1 (14C11; D Huang, unpublished), rabbit polyclonal anti-Bak (B5897: Sigma), anti-Mcl-1 (Rockland), anti-caspase-3 (585; gift of Y. Lazebnik), anti-cleaved p17 fragment of caspase-3 (AB3623; Chemicon), anti-gelsolin (gift of D Kwiatkowski) (Kothakota et al., Science, 278:294-298, 1997); hamster monoclonal anti-mouse Bcl-2 (3F11; BD). Secondary antibodies included HRP-conjugated anti-rat or anti-hamster IgG (SouthernBiotech), anti-mouse or anti-rabbit IgG (Chemicon), and anti-mouse IgG Fcγ chain specific antibody (Jackson ImmunoResearch). The proteins were detected using Enhanced ChemiLuminescence (ECL; GE Healthcare).
Platelets were counted manually in triplicate using a hemacytometer.

[9] = ABT-737 1 μM added on days 1, 3 and 5, 25,000 bone marrow cells, 7 d, mean of two cultures
[10] = progenitor cell cultures in vitro

CN(C)CC[C@H](CSc1ccccc1)Nc1ccc(S(=O)(=O)NC(=O)c2ccc(N3CCN(Cc4ccccc4-c4ccc(Cl)cc4)CC3)cc2)cc1[N+](=O)[O-] [ABT-737]
efficacy against tumor cell lines [1]: single agent efficacy | tolerability in mice [2]: well-tolerated | megakaryocytopoiesis in ABT-737 treated mice [3]: normal, or probably even elevated | Blast colonies [4, 9]: 16 | Eo, eosinophil colony [4, 9]: 1 | G, granulocyte colony [4, 9]: 14 | GM, granulocyte/macrophage colony [4, 9]: 6 | M, macrophage colony [4, 9]: 14 | Meg, megakaryocyte colony ([4]; ABT-737 1 μM added on days 1, 3 and 5, 25,000 bone marrow cells, 7 d, means±SD of four independent cultures): 14 ± 6 | effect on formation of other colonies [4, 10]: unaffected | effect on megakaryocyte colony formation [4, 10]: no effect; also recorded: minor effect | susceptibility of human platelets to ABT-737 [5]: caspase-dependent susceptibility | effect of ABT-737 on newly synthesized young platelets ([6]; ABT-737 injected 2 days post-APS, counts 2 h post injection): highly resistant | effect of ABT-737 on aged platelets ([6]; ABT-737 injected 7 days post APS, counts 2 h post injection): susceptible | effect of ABT-737 on platelets in Bak^-/- Bax^+/- mice ([6]; Bak^-/- Bax^+/- mice, single dose 75 mg/kg, 0-24 h, 75 mg/kg): entirely refractory; also recorded: enthely refractory; also recorded: completely protected | effect of ABT-737 on platelet counts in Bak^-/- mice ([6]; Bak^-/- mice, single dose 75 mg/kg, 0-24 h, 75 mg/kg): significantly buffered; also recorded: unaffected by ABT-737 at early time points (up to 4 h) | impact of loss of Bax alone on the effect of ABT-737 ([6]; Bax-deficient mice (data not shown)): little impact | ABT-737-induced thrombocytopaenia in Bcl-x^+/- mice ([6]; Bcl-x^+/- vs wild type and Bcl-2^+/- mice, single dose 75 mg/kg, 2-24 h, 75 mg/kg): exacerbates | platelet levels during continued daily ABT-737 ([6]; daily injections continued for 14 days): 60-70 % of normal | platelet counts with weekly ABT-737 ([6]; single dose given at weekly intervals, counts before and 8 h after): acute thrombocytopaenia ensued in a cyclical manner; also recorded: comparable drop in platelets each time | dose dependence of thrombocytopaenia ([6]; wild type C57BL/6 mice (data not shown)): dose dependent | platelet counts after recovery from a single dose ([6]; wild type C57BL/6 mice, 2-96 h after a single dose): rebound thrombocytosis by day 4 | time for platelet counts to recover to normal levels ([6]; wild type C57BL/6 mice, after a single dose): ≤ 3 days | selectivity among pro-survival Bcl-2 family proteins [7]: selectively targets Bcl-2, Bcl-xL and Bcl-w but not the other pro-survival proteins Mcl-1 or A1 | loss of wild type platelets in culture ([8]; counted after 1 h): Bak-mediated caspase-dependent loss of platelets | caspase-3 activation and gelsolin cleavage in cultured platelets ([8]; immunoblotting): triggered cleavage and full activation of caspase-3 as well as cleavage of gelsolin; also recorded: induced complete caspase-3 activation and gelsolin cleavage | action of ABT-737 on viability of Bak^-/- platelets in culture ([8]; Bak^-/- vs wild type platelets, 1 h): markedly blunted
